{
  "source": "PubChem BioAssay AID2305",
  "about": "(GlaxoSmithKline (GSK), 2010)",
  "data": [
    {"tested_on": "P. falciparum 3D7 growth, pLDH absorbance", "test": "P. falciparum 3D7 growth inhibition, dose response, strain 3D7 (AID 2305)", "units": {"IC50": "µM"}, "values": [
      {"smiles": "Cc1ccc(NC(=O)c2ccc3ncccc3c2)cc1OC1CCN(Cc2ccc(F)cc2)C1", "note": "(stereo not drawn)", "IC50": 1.36},
      {"smiles": "COc1cc(-c2nc(-c3ccc4c(c3)CCC4=NO)c(-c3ccncc3)[nH]2)ccc1OCCN1CCCCC1", "IC50": 0.79},
      {"smiles": "COc1c(CNCCCCCCNCc2cc(Cl)c3ccccc3c2OC)cc(Cl)c2ccccc12", "IC50": 0.94},
      {"smiles": "COc1cc2nc(N3CCC(CNC(=O)c4ccc(-c5ccc(C(=O)N(C)C)cc5)cc4)CC3)nc(N)c2cc1OC", "IC50": 0.75},
      {"smiles": "O=C(Nc1ccc2c(c1)OCO2)NC1CCN(c2ccnc(NCc3ccc(F)cc3)n2)CC1", "IC50": 0.94},
      {"smiles": "COc1ccccc1/C=C/C(=O)NC1CCC(CCN2CCc3ccc(-c4cc(C)no4)cc3CC2)CC1", "note": "(stereo not drawn)", "IC50": 0.96},
      {"smiles": "CCCOc1cc(NC(=O)Nc2ccnc3ccccc23)cc(OCCC)c1", "IC50": 0.73},
      {"smiles": "CN1CC=C(c2c[nH]c3ccc(Br)cc23)CC1", "IC50": 1.19},
      {"smiles": "COc1cc(F)c2ncc(Cl)c(CCN3CCC(NCc4ccc5c(n4)NC(=O)CS5)CC3)c2c1", "IC50": 0.48},
      {"smiles": "CN(Cc1ccccc1)C(=O)CCNS(=O)(=O)c1cc(Br)cnc1N", "IC50": 1.13},
      {"smiles": "CC(C)Oc1cc2c(cc1NS(=O)(=O)c1ccc(-c3cccs3)cc1)CCN(C)CC2", "IC50": 0.96},
      {"smiles": "O=C(Nc1cc(F)cc(F)c1)N1CCOC(CCN2CCC(c3ccccc3)CC2)(c2ccc(Cl)c(Cl)c2)C1", "note": "(stereo not drawn)", "IC50": 0.47},
      {"smiles": "Cc1cc(=O)[nH]c(NC#N)n1", "IC50": 0.17},
      {"smiles": "CCCNCc1ccc(-c2ccc(CN(CCOC)C(=O)CCc3ccc(OC)cc3)cc2)nc1", "IC50": 0.98},
      {"smiles": "CN(C(=O)/C=C/c1cc(C(F)(F)F)ccc1F)C1CCN(CCCCCNC(=O)/C=C/c2ccc(Cl)c(Cl)c2)C1", "note": "(stereo not drawn)", "IC50": 1.09},
      {"smiles": "C[C@@H](CNc1ccnc(Nc2ccc3[nH]c(=O)[nH]c3c2)n1)c1ccccc1", "IC50": 1.1},
      {"smiles": "CC(Nc1cc(-c2ccccn2)nc(-c2ccccn2)n1)c1ccccc1", "note": "(stereo not drawn)", "IC50": 0.45},
      {"smiles": "c1ccc(CCNCc2ccc(-c3ccc(CNCc4ccc5c(c4)OCO5)cc3)nc2)cc1", "IC50": 1.25},
      {"smiles": "O=C(NCCCCN1CCC(C(c2ccccc2)c2ccccc2)CC1)c1ccc(NC(=O)c2ccc(Cl)cc2)cc1", "IC50": 0.77},
      {"smiles": "Cc1cc(N[C@@H](CC(C)C)C(=O)NCc2cccs2)nc(NCCc2ccc(F)cc2)n1", "IC50": 0.8},
      {"smiles": "COc1cccc(NC(=O)NC2CCN(c3ccnc(Nc4ccc(F)cc4)n3)C2)c1", "note": "(stereo not drawn)", "IC50": 0.57},
      {"smiles": "Oc1cccc(-c2nc(-c3ccccc3)c(-c3ccc4oc5ccc(-c6[nH]c(-c7cccc(O)c7)nc6-c6ccccc6)cc5c4c3)[nH]2)c1", "IC50": 0.79},
      {"smiles": "COc1ccc(C(=O)Nc2cc(Br)c3c(c2)CNCC3)cc1C(F)(F)F", "IC50": 1.07},
      {"smiles": "Cc1nc(N)nc(N)c1CCCOc1ccc(Br)cc1", "IC50": 0.49},
      {"smiles": "COc1c(I)cc(Cc2cnc(N)nc2N)cc1I", "IC50": 0.93},
      {"smiles": "CCCCc1cc(=O)oc2cc(C)cc(OCc3ccccc3F)c12", "IC50": 1.03},
      {"smiles": "CC(=O)c1cccc2c(NC(=O)Nc3ccc4nccc(N5CCN(C)CC5)c4c3)cccc12", "IC50": 0.4},
      {"smiles": "COCCNC(=O)c1ccc(OC2CCN(CC(C)=Cc3ccccc3)CC2)c(Cl)c1", "IC50": 0.65},
      {"smiles": "CCOc1ccc(OCC)c(N2CCN(CCCCNC(=O)c3ccc(NC(=O)c4ccc(Cl)cc4)cc3)CC2)c1", "IC50": 0.59},
      {"smiles": "CC(C)[C@@H]1c2ccc(O)cc2C[C@H]2C(=O)N(C3CCCCC3)C(=O)N21", "IC50": 0.88},
      {"smiles": "CN(C)CCOc1ccc2c(c1)CN(C)CC2c1ccccc1", "note": "(stereo not drawn)", "IC50": 1.11},
      {"smiles": "O=C(c1cc(-c2cccs2)[nH]n1)N1CCN(S(=O)(=O)c2ccc(Cl)cc2)CC1", "IC50": 0.29},
      {"smiles": "CCCCCCCNC(=O)NCC1CCCN(CCCCCNC(=O)/C=C/c2ccc(Cl)c(Cl)c2)C1", "note": "(stereo not drawn)", "IC50": 1.04},
      {"smiles": "CCOc1ccc(NC(=O)c2cccc(CN3CCCN(Cc4cccc(O)c4)CC3)c2)cc1", "IC50": 1.08},
      {"smiles": "O=S(=O)(Nc1cccc(CCN2CCC(N3CCCCC3)CC2)c1)c1cccc(C(F)(F)F)c1", "IC50": 0.98},
      {"smiles": "CS(=O)(=O)c1ccc(CNCc2cccc(-c3cccc(-c4nc5ccccc5[nH]4)c3)c2)cc1", "IC50": 0.59},
      {"smiles": "CSC1=NC(=Nc2c(C)cccc2C)C2(CCCCC2)N1c1ccccc1Cl", "IC50": 0.82},
      {"smiles": "Cc1noc(C)c1-c1ccc2c(Nc3ccccc3N3CCOCC3)c(C(=O)NCc3ccccc3)cnc2c1", "IC50": 1.18},
      {"smiles": "Cc1ccc(N2CCc3c(-c4cc5cccnc5nc4C)cc(C)nc32)c(Cl)c1", "IC50": 0.58},
      {"smiles": "COc1ccc(CNCc2ccc(-c3ccc(-c4nc5ccc(C(F)(F)F)cc5[nH]4)s3)cc2)cc1", "IC50": 0.17},
      {"smiles": "Nc1cc(-c2ccc(-c3cccs3)s2)nc2ccccc12", "IC50": 0.6},
      {"smiles": "CN1C(=O)OC[C@@H]1Cc1ccc2[nH]cc(C3=CCN(Cc4ccccc4)CC3)c2c1", "IC50": 0.42},
      {"smiles": "CN(C)c1cc(NC(=O)Nc2ccc(SC(F)(F)F)cc2)c2ccccc2n1", "IC50": 0.14},
      {"smiles": "CC(C)CC(NC(=O)c1cccc(OCCN2CCOCC2)c1)C(=O)NC(/C=N/NC(=O)c1ccccc1)CCc1ccccc1", "note": "(stereo not drawn)", "IC50": 0.25},
      {"smiles": "O=C(Nc1cccc(CN2CCCN(Cc3cccc(O)c3)CC2)c1)c1ccc(-c2ccccc2)cc1", "IC50": 0.64},
      {"smiles": "Cc1cc(C2CCN(CCCCNC(=O)c3ccc(-c4ccc(C(F)(F)F)cc4)cc3)CC2)c(C)cc1OCCO", "IC50": 0.88},
      {"smiles": "Fc1ccc(-c2cncc(Nc3ccncc3)n2)cc1", "IC50": 1.32},
      {"smiles": "CN1CCN(CC2(Nc3nccc(NCc4ccc(Cl)cc4Cl)n3)CCCCC2)CC1", "IC50": 0.59},
      {"smiles": "COc1cc(NCCCCCNc2cc(Cl)nc3ccccc23)nc2ccccc12", "IC50": 0.78},
      {"smiles": "CCOc1ncccc1CN1CCC(N2CCc3cc(NC(=O)c4cc(C)on4)ccc32)C1", "note": "(stereo not drawn)", "IC50": 0.31},
      {"smiles": "COc1cc(-c2cc(-c3ccc(OCCN(C)C)cc3)[nH]c2-c2ccncc2)ccc1Cl", "IC50": 0.71},
      {"smiles": "CC(C)(C)c1ccc(CNC(=O)/C=C/c2ccc(-c3nc4ccc(C(C)(C)C)cc4[nH]3)cc2)cc1", "IC50": 0.54},
      {"smiles": "NC(=O)CCC(NC(=O)CNC(=O)Nc1cccc(C(F)(F)F)c1)C(=O)O", "note": "(stereo not drawn)", "IC50": 0.8},
      {"smiles": "Cc1ccc(C2=NNC3(S2)C(=O)Nc2ccc(C)cc23)cc1", "note": "(stereo not drawn)", "IC50": 1.02},
      {"smiles": "Nc1ccc2nc(C=Cc3ccc(Cl)cc3)[nH]c2c1", "IC50": 0.94},
      {"smiles": "CCOc1ccc(C(=O)Nc2nonc2-c2ccc(OC)c(OC)c2)cc1", "IC50": 0.87},
      {"smiles": "Cc1c(CNCCCNc2cc(=O)c3ccccc3[nH]2)sc(C(F)F)c1Br", "IC50": 0.87},
      {"smiles": "CCOC(=O)c1c(C)n(-c2ccccc2)c2ccc(OC(=O)COc3ccc(Cl)cc3Cl)cc12", "IC50": 0.43},
      {"smiles": "COc1ccc2nc3cc(Cl)ccc3c(NCc3ccccc3)c2c1", "IC50": 0.87},
      {"smiles": "CN(C)CCC(=O)c1ccccc1", "IC50": 0.33},
      {"smiles": "COc1cc2nc(C)nc(Nc3ccc(Cc4ccccc4)cc3)c2cc1OC", "IC50": 0.73},
      {"smiles": "Cc1ccc(Nc2nc3cc(Nc4ccnc(Nc5ccc(CS(C)(=O)=O)cc5)n4)ccc3o2)cc1", "IC50": 0.76},
      {"smiles": "Cc1cc(N[C@@H](Cc2ccccc2)C(=O)NCCOc2ccccc2)nc(NCc2ccccc2C)n1", "IC50": 0.71},
      {"smiles": "FC(F)(F)c1cccc(NC(=S)NN=Cc2ccccn2)c1", "IC50": 0.35},
      {"smiles": "Cc1ccc(F)cc1S(=O)(=O)N1CCCCC(c2ccc(C(F)(F)F)cc2)=N1", "IC50": 0.94},
      {"smiles": "COc1ccccc1CCNc1nc(C)cc(N[C@@H](CC(C)C)C(=O)Nc2ccccc2)n1", "IC50": 1.28},
      {"smiles": "COc1ccc(C[C@H](N)C(=O)N[C@H]2[C@@H](O)[C@H](n3cnc4c(N(C)C)ncnc43)O[C@@H]2CO)cc1", "IC50": 0.3},
      {"smiles": "COc1cccc(NC(=O)c2nc(N3CCN(c4ccncc4)CC3)ccc2Cl)c1", "IC50": 0.92},
      {"smiles": "COc1cc2nc(NCCc3ccccc3)nc(NCc3cnn(C)c3C)c2cc1OC", "IC50": 0.71},
      {"smiles": "O=C(Nc1cccc(-c2cccc(-c3nc4ccc(C(F)(F)F)cc4[nH]3)c2)c1)c1cnc[nH]1", "IC50": 0.21},
      {"smiles": "CCCCCCNc1c2ccccc2nc2ccccc12", "IC50": 0.95},
      {"smiles": "CCN(Cc1ccccc1)CC(O)c1ccc(Cl)c(Cl)c1", "note": "(stereo not drawn)", "IC50": 0.18},
      {"smiles": "COc1cc(C(F)(F)F)c2cc(CNCCCNc3nc4ccccc4[nH]3)[nH]c2c1", "IC50": 0.31}
    ]}
  ]
}
